This is an account of results in US6642226B2, “Substituted phenyl-piperidine methanone compounds” (Hoffman-La Roche Inc., priority 2001, dated 2003).

This test addresses T1, human NK1 receptor (Homo sapiens, UniProt P25103).
T1 construct: expressed in transfected cells; host or cells: CHO cells, Semliki virus expression system; membrane suspension
Put plainly: NK1 receptor binding, [3H]substance P displacement. Conditions: for Ki: human NK1 receptors in CHO cells, [3H]substance P 0.6 nM, read-out: pKi (affinity to the NK-1 receptor) (converted); for relative activity of enantiomer in the test for NK-1 binding: enantiomer fraction from Chiralpak AD separation of the racemate. The method, then: The affinity of test compounds for the NK1 receptor was evaluated at human NK1 receptors in CHO cells infected with the human NK1 receptor (using the Semliki virus expression system) and radiolabelled with [^3H]substance P (final concentration 0.6 nM). Binding assays were performed in HEPES buffer (50 mM, pH 7.4) containing BSA (0.04%) leupeptin (8 μg/ml), MnCl2 (3 mM) and phosphoramidon (2 μM). Binding assays consisted of 250 μl of membrane suspension (1.25×10^5 cells/assay tube), […] of buffer of displacing agent and 125 μl of [^3H]substance P. Displacement curves were determined with at least seven concentrations of the compound. The assay tubes were incubated for 60 min at room temperature after which time the tube contents were rapidly filtered under vacuum through GF/C filters presoaked for 60 min with PEI (0.3%) with 2×2 ml washes of HEPES buffer (50 mM, pH 7.4). The radioactivity retained on the filters was measured by scintillation counting. All assays were performed in triplicate in at least 2 separate experiments.

The structures appear in SMILES notation.

T1 sequence (P25103 whole entry): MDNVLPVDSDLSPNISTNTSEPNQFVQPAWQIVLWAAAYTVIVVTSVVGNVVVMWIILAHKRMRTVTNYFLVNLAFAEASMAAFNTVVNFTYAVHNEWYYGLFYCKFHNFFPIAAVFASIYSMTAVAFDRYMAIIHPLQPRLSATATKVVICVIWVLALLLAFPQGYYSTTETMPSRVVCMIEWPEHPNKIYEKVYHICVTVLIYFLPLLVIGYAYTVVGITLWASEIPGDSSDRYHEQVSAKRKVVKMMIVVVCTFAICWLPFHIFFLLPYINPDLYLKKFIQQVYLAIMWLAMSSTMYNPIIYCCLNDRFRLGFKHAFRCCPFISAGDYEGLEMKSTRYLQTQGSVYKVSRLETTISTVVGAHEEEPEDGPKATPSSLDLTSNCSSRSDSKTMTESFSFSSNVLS

On to `O=C(c1cc(C(F)(F)F)cc(C(F)(F)F)c1)N1CC[C@H](N2CCN(C(=O)C(F)(F)F)CC2)[C@H](c2ccc(Cl)cc2)C1` (racemic) [Example 106, Rac-cis-1-{4-[1-(3,5-Bis-trifluoromethyl-benzoyl)-3-(4-chloro-phenyl)-piperidin-4-yl]-piperazin-1-yl}-2,2,2-trifluoro-ethanone], for which the Ki is 3.16 nM.
On the same count and under the same terms, the value for `O=C(NC1CCCN(C2CCN(C(=O)c3cc(C(F)(F)F)cc(C(F)(F)F)c3)CC2c2ccc(F)cc2)C1)C1CC1` (mixture of isomers) [Example 77, (3RS,3′RS,4SR)- and (3RS,3′SR,4SR)-Cyclopropanecarboxylic acid [1′-(3,5-bis-trifluoromethyl-benzoyl)-3′-(4-fluoro-phenyl)-[1,4′]bipiperidinyl-3-yl]-amide] was 2.95 nM.
On to `O=C(c1cc(C(F)(F)F)cc(C(F)(F)F)c1)N1CC[C@@H](N2CCN(C(=O)C(F)(F)F)CC2)[C@@H](c2ccc(Cl)cc2)C1` (single isomer, unassigned) [Example 108, (−)-1-{4-[1-(3,5-Bis-trifluoromethyl-benzoyl)-3-(4-chloro-phenyl)-piperidin-4-yl]-piperazin-1-yl}-2,2,2-trifluoro-ethanone], for which the “relative activity of enantiomer in the test for NK-1 binding” value (shortened to “relative activity of enantiomer”) is “more active enantiomer” and the Ki is 1.29 nM.
For `O=C(c1cc(C(F)(F)F)cc(C(F)(F)F)c1)N1CC[C@@H](N2CCN(C(=O)C3CC3)CC2)[C@@H](c2ccccc2)C1` (single isomer, unassigned) [Example 65, (+)-(3,5-Bis-trifluoromethyl-phenyl)-[4-(4-cyclopropanecarbonyl-piperazin-1-yl)-3-phenyl-piperidin-1-yl]-methanone] the same measures were “more active enantiomer” and 1.41 nM.
For the molecule `O=C(c1cc(C(F)(F)F)cc(C(F)(F)F)c1)N1CCC(N2CCN(C(=O)C3CC3)CC2)C(c2ccc(F)cc2)C1` (single isomer, unassigned; (+)) [Example 85, (+)-(3,5-Bis-trifluoromethyl-phenyl)-[4-(4-cyclopropanecarbonyl-piperazin-1-yl)-3-(4-fluoro-phenyl)-piperidin-1-yl]-methanone], the “relative activity of enantiomer” value was “more active enantiomer”.
Take `O=C(c1cc(C(F)(F)F)cc(C(F)(F)F)c1)N1CCC(N2CCC(NC3CC3)CC2)C(c2ccc(Cl)cc2)C1` (racemic) [Example 112, Rac-cis-(3,5-Bis-trifluoromethyl-phenyl)-[3′-(4-chloro-phenyl)-4-cydopropylamino-[1,4′]bipiperidinyl-1′-yl]-methanone]: the Ki was 0.794 nM.
As to `CN1CCN([C@@H]2CCN(C(=O)c3cc(C(F)(F)F)cc(C(F)(F)F)c3)C[C@@H]2c2ccc(F)cc2)CC1` (single isomer, unassigned) [Example 90, (−)-(3,5-Bis-trifluoromethyl-phenyl)-[3-(4-fluoro-phenyl)-4-(4-methyl-piperazin-1-yl)-piperidin-1-yl]-methanone], the “relative activity of enantiomer” value was “more active enantiomer” and the Ki was 2.45 nM.
For the molecule `O=C(Cc1ccccc1)NC1CCCN(C2CCN(C(=O)c3cc(C(F)(F)F)cc(C(F)(F)F)c3)CC2c2ccc(F)cc2)C1` (mixture of isomers) [Example 79, (3RS,3′RS,4SR)- and (3RS,3′SR,4SR)-N-[1′-(3,5-Bis-trifluoromethyl-benzoyl)-3′-(4-fluoro-phenyl)-[1,4′]bipiperidinyl-3-yl]-2-phenyl-acetamide], the Ki was 2.04 nM.
With `O=C(c1cc(C(F)(F)F)cc(C(F)(F)F)c1)N1CC[C@@H](N2CCOCC2)[C@@H](c2ccc(Cl)cc2)C1` (single isomer, unassigned) [Example 70, (−)-(3,5-Bis-trifluoromethyl-phenyl)-[3-(4-chloro-phenyl)-4-morpholin-4-yl-piperidin-1-yl]-methanone], the “relative activity of enantiomer” value is recorded as “more active enantiomer” and the Ki was 2.57 nM.
In the case of `O=C(c1cc(C(F)(F)F)cc(C(F)(F)F)c1)N1CC[C@H](N2CCN(CC3CC3)CC2)[C@H](c2ccc(F)cc2)C1` (racemic) [Example 88, Rac-cis-(3,5-Bis-trifluoromethyl-phenyl)-[4-(4-cyclopropylmethyl-piperazin-1-yl)-3-(4-fluoro-phenyl)-piperidin-1-yl]-methanone], the Ki is 3.16 nM.
Still for that read-out and setting: for `O=C(c1cc(C(F)(F)F)cc(C(F)(F)F)c1)N1CCC(N2CCN(CC3CC3)CC2)C(c2ccc(Cl)cc2)C1` (single isomer, unassigned; (-)) [Example 113, (−)-(3,5-Bis-trifluoromethyl-phenyl)-[3-(4-chloro-phenyl)-4-(4-cyclopropylmethyl-piperazin-1-yl)-piperidin-1-yl]-methanone] the value was 0.363 nM; for `O=C(c1cc(C(F)(F)F)cc(C(F)(F)F)c1)N1CCC(N2CCN(CC3CC3)CC2)C(c2ccccc2)C1` (single isomer, unassigned; (-)) [Example 114, (−)-(3,5-Bis-trifluoromethyl-phenyl)-[4-(4-cyclopropylmethyl-piperazin-1-yl)-3-phenyl-piperidin-1-yl]-methanone], 0.363 nM.
Same read-out and setting: the value for `O=C(c1cc(C(F)(F)F)cc(C(F)(F)F)c1)N1CCC(N2CCC(N3CCOCC3)CC2)C(c2ccc(Cl)cc2)C1` (racemic) [Example 109, Rac-cis-(3,5-Bis-trifluoromethyl-phenyl)-[3′-(4-chloro-phenyl)-4-morpholin-4-yl-[1,4′]bipiperidinyl-1′-yl]-methanone] was 1.62 nM; that for `O=C(c1cc(C(F)(F)F)cc(C(F)(F)F)c1)N1CC[C@@H](N2CCN(C3CC3)CC2)[C@@H](c2ccccc2)C1` (single isomer, unassigned) [Example 119, (−)-(3,5-Bis-trifluoromethyl-phenyl)-[4-(4-cyclopropyl-piperazin-1-yl)-3-phenyl-piperidin-1-yl]-methanone] was 1 nM.
In the case of `O=C(c1cc(C(F)(F)F)cc(C(F)(F)F)c1)N1CCC(N2CCC(OCC3CC3)CC2)C(c2ccc(Cl)cc2)C1` (racemic) [Example 66, Rac-cis-(3,5-Bis-trifluoromethyl-phenyl)-[3′-(4-chloro-phenyl)-4-cyclopropylmethoxy-[1,4′]bipiperidinyl-1′-yl]-methanone], the Ki was 2.75 nM.
For the molecule `O=C(c1cc(C(F)(F)F)cc(C(F)(F)F)c1)N1CC[C@@H](N2CCCC2)[C@@H](c2ccc(Cl)cc2)C1` (single isomer, unassigned) [Example 80, (−)-(3,5-Bis-trifluoromethyl-phenyl)-[3-(4-chloro-phenyl)-4-pyrrolidin-1-yl-piperidin-1-yl]-methanone], the “relative activity of enantiomer” value is “more active enantiomer” and the Ki is 3.16 nM.
With `Cc1ccc(C2CN(C(=O)c3cc(C(F)(F)F)cc(C(F)(F)F)c3)CCC2N2CCN(C(=O)N3CCOCC3)CC2)cc1` (single isomer, unassigned; (-)) [Example 104, (−)-(3,5-Bis-trifluoromethyl-phenyl)-{4-[4-(morpholine-4-carbonyl)-piperazin-1-yl]-3-p-tolyl-piperidin-1-yl}-methanone], the Ki is 2.34 nM.
Same read-out and setting: the value for `Cc1ccc(C2CN(C(=O)c3cc(C(F)(F)F)cc(C(F)(F)F)c3)CCC2N2CCN(C)CC2)cc1` (single isomer, unassigned; (-)) [Example 111, (−)-(3,5-Bis-trifluoromethyl-phenyl)-[4-(4-methyl-piperazin-1-yl)-3-p-tolyl-piperidin-1-yl]-methanone] was 0.457 nM.
As to `NC1CCN(C2CCN(C(=O)c3cc(C(F)(F)F)cc(C(F)(F)F)c3)CC2c2ccc(F)cc2)C1` (mixture of isomers) [Example 118, (3RS,3′RS,4SR)- and (3RS,3′SR,4SR)-[4-(3-Amino-pyrrolidin-1-yl)-3-(4-fluoro-phenyl)-piperidin-1-yl]-(3,5-bis-trifluoromethyl-phenyl)-methanone], the Ki is 1.78 nM.
Regarding `CN1CCN(C2CCN(C(=O)c3cc(Cl)cc(Cl)c3)CC2c2ccccc2)CC1` (single isomer, unassigned; (+)) [Example 127, (+)-(3,5-Dichloro-phenyl)-[4-(4-methyl-piperazin-1-yl)-3-phenyl-piperidin-1-yl]-methanone], the “relative activity of enantiomer” value is reported as “more active enantiomer”.
Turning to `O=C(c1cc(C(F)(F)F)cc(C(F)(F)F)c1)N1CCC(N2CCN(CCO)CC2)C(c2ccccc2)C1` (single isomer, unassigned; (-)) [Example 115, (−)-(3,5-Bis-trifluoromethyl-phenyl)-{4-[4-(2-hydroxy-ethyl)-piperazin-1-yl]-3-phenyl-piperidin-1-yl}-methanone], the Ki is 0.912 nM.
With `Cc1ccc(C2CN(C(=O)c3cc(C(F)(F)F)cc(C(F)(F)F)c3)CCC2N2CCN(C(=O)C3CC3)CC2)cc1` (single isomer, unassigned; (-)) [Example 103, (−)-(3,5-Bis-trifluoromethyl-phenyl)-[4-(4-cyclopropanecarbonyl-piperazin-1-yl)-3-p-tolyl-piperidin-1-yl]-methanone], the Ki is 2.14 nM.
As for `Cc1ccc(C2CN(C(=O)c3cc(C(F)(F)F)cc(C(F)(F)F)c3)CCC2N2CCN(C(=O)C(F)(F)F)CC2)cc1` (single isomer, unassigned; (-)) [Example 100, (−)-{4-[1-(3,5-Bis-trifluoromethyl-benzoyl)-3-p-tolyl-piperidin-4-yl]-piperazin-1-yl}-2,2,2-trifluoro-ethanone], the “relative activity of enantiomer” value is “more active enantiomer”.
